Results from patent US20020137929A1, “1 - (3-heterocyclylphenyl) isothiourea, -isourea, -guanidine and -amidine herbicidal agents” (Intellectual Property Department, BASF Aktiengesellschaft, priority 1998, published 2002).

Columns and labels:
[1] = system: CASOB (Sicklepod); experiment: Postemergence herbicidal evaluation; type: in vivo, Cassia obtusifolia; conditions: postemergence
Method in brief: (§1)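 Scores (0–9) reflect plant stand, vigor, malformation, size, chlorosis and general appearance relative to control, read 4 to 5 weeks after treatment and averaged where tests were repeated. Application: about 0.0156–0.500 kg/ha sprayed at 40 psi onto two-week seedlings.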

[2] = system: AMBEL (Ragweed, Common); experiment: Postemergence herbicidal evaluation; type: in vivo, Ambrosia artemisifolia; conditions: postemergence
Method in brief: as §1

[3] = system: TRZAWR (Wheat, Winter, cv Riband); experiment: Postemergence herbicidal evaluation; type: in vivo, Triticum aestivum; conditions: postemergence
Method in brief: as §1

[4] = system: GLXMAW (Soybean, Williams); experiment: Preemergence herbicidal evaluation; type: in vivo, Glycine max, (L.) Merr. cv Williams; conditions: rated 4-5 weeks after treatment
Method in brief: (§2)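 Seeds were mixed with potting soil and planted on about one inch of soil, then sprayed with test compound in aqueous acetone at about 0.0156 to 0.500 kg per hectare. Plants grew under standard greenhouse care and were visually rated 0-9 against untreated controls 4-5 weeks post-treatment.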

[5] = system: ECHCG (Barnyardgrass); experiment: Postemergence herbicidal evaluation; type: in vivo, Echinochloa crus-galli; conditions: postemergence
Method in brief: as §1

[6] = system: ABUTH (Velvetleaf); experiment: Preemergence herbicidal evaluation; type: in vivo, Abutilon theophrasti; conditions: rated 4-5 weeks after treatment
Method in brief: as §2

[7] = system: GLXMAW (Soybean, Williams); experiment: Postemergence herbicidal evaluation; type: in vivo, Glycine max, (L.) Merr. cv Williams; conditions: postemergence
Method in brief: as §1

[8] = system: CHEAL (Lambsquarters, Common); experiment: Preemergence herbicidal evaluation; type: in vivo, Chenopodium album; conditions: rated 4-5 weeks after treatment
Method in brief: as §2

[9] = system: CASOB (Sicklepod); experiment: Preemergence herbicidal evaluation; type: in vivo, Cassia obtusifolia; conditions: rated 4-5 weeks after treatment
Method in brief: as §2

[10] = system: SAGPY (Arrowhead (Pygmaea)); experiment: Preemergence weed control under flooded paddy conditions; type: in vivo, Sagittaria pygmaea; conditions: rated 3-4 weeks after treatment
Method in brief: (§3)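 First, seeds or propagules go into the top 0.5 cm of silt loam; next, water is held 1.5 to 3 cm over the soil; then compound (50/50 acetone/water) is pipetted into it at about 0.0313 to 0.500 kg/ha; finally plants are rated visually 0-9 after three to four weeks.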

[11] = system: AMBEL (Ragweed, Common); experiment: Preemergence herbicidal evaluation; type: in vivo, Ambrosia artemisifolia; conditions: rated 4-5 weeks after treatment
Method in brief: as §2

[12] = system: MOOVA (Monochoria); experiment: Preemergence weed control under flooded paddy conditions; type: in vivo, Monochoria vaginalis; conditions: rated 3-4 weeks after treatment
Method in brief: as §3

[13] = system: ORYSAT (Rice, Tebonnet); experiment: Preemergence herbicidal evaluation; type: in vivo, Oryza sativa, (L.) Tebonnet; conditions: rated 4-5 weeks after treatment
Method in brief: as §2

[14] = system: CHEAL (Lambsquarters, Common); experiment: Postemergence herbicidal evaluation; type: in vivo, Chenopodium album; conditions: postemergence
Method in brief: as §1

In the case of O=C1CSC(=Nc2cc(N3C(=O)C4=C(CCCC4)C3=O)c(F)cc2Cl)N1c1ccccc1 [Compound 3, N-{4-chloro-2-fluoro-5-[(4-oxo-3-phenyl-2-thiazolidinylidene)amino]phenyl}-1-cyclohexene-1,2-dicarboximide], the CASOB herbicidal rating ([1]; rate 0.0157 kg/ha) is reported as 0.0, the CASOB herbicidal rating ([1]; rate 0.0313 kg/ha) is reported as 0.0 and the CASOB herbicidal rating ([1]; rate 0.0625 kg/ha) is reported as 0.0. For the same compound, the CASOB herbicidal rating ([1]; rate 0.1250 kg/ha) was 0.0, the CASOB herbicidal rating ([1]; rate 0.2500 kg/ha) was 6.0 and the CASOB herbicidal rating ([1]; rate 0.5000 kg/ha) was 4.0. It also gave an AMBEL herbicidal rating ([2]; rate 0.0313 kg/ha) of 2.0, an AMBEL herbicidal rating ([2]; rate 0.0625 kg/ha) of 0.0 and an AMBEL herbicidal rating ([2]; rate 0.1250 kg/ha) of 6.0. It also gave an AMBEL herbicidal rating ([2]; rate 0.2500 kg/ha) of 6.0, an AMBEL herbicidal rating ([2]; rate 0.5000 kg/ha) of 9.0 and a TRZAWR herbicidal rating ([3]; rate 0.0157 kg/ha) of 2.5. The TRZAWR herbicidal rating ([3]; rate 0.0313 kg/ha) was 2.5, the TRZAWR herbicidal rating ([3]; rate 0.0625 kg/ha) was 3.0 and the TRZAWR herbicidal rating ([3]; rate 0.1250 kg/ha) was 2.5. The TRZAWR herbicidal rating ([3]; rate 0.2500 kg/ha) was 3.0, the TRZAWR herbicidal rating ([3]; rate 0.5000 kg/ha) was 4.0 and the “GLXMAW preemergence herbicidal rating” value ([4]; rate 0.0313 kg/ha) was 0.0. For the same compound, the “GLXMAW preemergence herbicidal rating” value ([4]; rate 0.0625 kg/ha) was 0.0, the “GLXMAW preemergence herbicidal rating” value ([4]; rate 0.1250 kg/ha) was 0.0 and the “GLXMAW preemergence herbicidal rating” value ([4]; rate 0.2500 kg/ha) was 0.0. The “GLXMAW preemergence herbicidal rating” value ([4]; rate 0.5000 kg/ha) was 2.0, the ECHCG herbicidal rating ([5]; rate 0.0157 kg/ha) was 0.0 and the ECHCG herbicidal rating ([5]; rate 0.0313 kg/ha) was 0.0. For the same compound, the ECHCG herbicidal rating ([5]; rate 0.0625 kg/ha) was 0.0, the ECHCG herbicidal rating ([5]; rate 0.1250 kg/ha) was 0.0 and the ECHCG herbicidal rating ([5]; rate 0.2500 kg/ha) was 0.0. For the same compound, the ECHCG herbicidal rating ([5]; rate 0.5000 kg/ha) was 0.0, the “ABUTH preemergence herbicidal rating” value ([6]; rate 0.0625 kg/ha) was 2.0 and the “ABUTH preemergence herbicidal rating” value ([6]; rate 0.1250 kg/ha) was 2.0. The “ABUTH preemergence herbicidal rating” value ([6]; rate 0.2500 kg/ha) was 0.0, the “ABUTH preemergence herbicidal rating” value ([6]; rate 0.5000 kg/ha) was 6.0 and the GLXMAW herbicidal rating ([7]; rate 0.0157 kg/ha) was 2.5. The GLXMAW herbicidal rating ([7]; rate 0.0313 kg/ha) was 3.5, the GLXMAW herbicidal rating ([7]; rate 0.0625 kg/ha) was 3.0 and the GLXMAW herbicidal rating ([7]; rate 0.1250 kg/ha) was 4.0. The GLXMAW herbicidal rating ([7]; rate 0.2500 kg/ha) was 4.0, the GLXMAW herbicidal rating ([7]; rate 0.5000 kg/ha) was 4.5 and the “CHEAL preemergence herbicidal rating” value ([8]; rate 0.0313 kg/ha) was 6.0. For the same compound, the “CHEAL preemergence herbicidal rating” value ([8]; rate 0.0625 kg/ha) was 9.0, the “CHEAL preemergence herbicidal rating” value ([8]; rate 0.1250 kg/ha) was 9.0 and the “CHEAL preemergence herbicidal rating” value ([8]; rate 0.2500 kg/ha) was 9.0. For the same compound, the “CHEAL preemergence herbicidal rating” value ([8]; rate 0.5000 kg/ha) was 9.0, the “CASOB preemergence herbicidal rating” value ([9]; rate 0.0313 kg/ha) was 0.0 and the “CASOB preemergence herbicidal rating” value ([9]; rate 0.0625 kg/ha) was 0.0. The “CASOB preemergence herbicidal rating” value ([9]; rate 0.1250 kg/ha) was 0.0, the “CASOB preemergence herbicidal rating” value ([9]; rate 0.2500 kg/ha) was 0.0 and the “CASOB preemergence herbicidal rating” value ([9]; rate 0.5000 kg/ha) was 2.0. The “Herbicidal rating SAGPY” value ([10]; 0.0625 kg/ha) was 0.0, the “Herbicidal rating SAGPY” value ([10]; 0.1250 kg/ha) was 0.0 and the “Herbicidal rating SAGPY” value ([10]; 0.2500 kg/ha) was 0.0. The “Herbicidal rating SAGPY” value ([10]; 0.5000 kg/ha) was 0.0, the “AMBEL preemergence herbicidal rating” value ([11]; rate 0.0313 kg/ha) was 0.0 and the “AMBEL preemergence herbicidal rating” value ([11]; rate 0.0625 kg/ha) was 0.0. For the same compound, the “AMBEL preemergence herbicidal rating” value ([11]; rate 0.1250 kg/ha) was 2.0, the “AMBEL preemergence herbicidal rating” value ([11]; rate 0.2500 kg/ha) was 2.0 and the “AMBEL preemergence herbicidal rating” value ([11]; rate 0.5000 kg/ha) was 7.0. The “Herbicidal rating MOOVA” value ([12]; 0.0625 kg/ha) was 2.0, the “Herbicidal rating MOOVA” value ([12]; 0.1250 kg/ha) was 9.0 and the “Herbicidal rating MOOVA” value ([12]; 0.2500 kg/ha) was 9.0. For the same compound, the “Herbicidal rating MOOVA” value ([12]; 0.5000 kg/ha) was 9.0, the “ORYSAT preemergence herbicidal rating” value ([13]; rate 0.0313 kg/ha) was 0.0 and the “ORYSAT preemergence herbicidal rating” value ([13]; rate 0.0625 kg/ha) was 0.0. For the same compound, the “ORYSAT preemergence herbicidal rating” value ([13]; rate 0.1250 kg/ha) was 0.0, the “ORYSAT preemergence herbicidal rating” value ([13]; rate 0.2500 kg/ha) was 0.0 and the “ORYSAT preemergence herbicidal rating” value ([13]; rate 0.5000 kg/ha) was 1.0. The CHEAL herbicidal rating ([14]; rate 0.0313 kg/ha) was 7.0, the CHEAL herbicidal rating ([14]; rate 0.0625 kg/ha) was 6.0 and the CHEAL herbicidal rating ([14]; rate 0.1250 kg/ha) was 9.0. The CHEAL herbicidal rating ([14]; rate 0.2500 kg/ha) was 9.0 and the CHEAL herbicidal rating ([14]; rate 0.5000 kg/ha) was 9.0.
